From patent US20190054064A1, “VITAMIN C AND VITAMIN K COMPOUND FOR TREATING PANCREATIC CANCER” (IC-MedTech Corp., priority 2014, published 2019)
Starred links: 1 amine or outer side, 2 acyl side, 3 side chain; linkers in the order of their positions; H or OH if unused. Positions of bridges follow the written chain, without caps; N, C: chain ends. Non-standard residues stand in square brackets, D forms with d. Residues, ends and D or L forms follow the SMILES beside them. Chains are numbered I, II in the order given. Actinocin(9to1) = Cc1c2oc3c(C)ccc(C(=O)[*:1])c3nc-2c(C(=O)[*:2])c(N)c1=O; NMeV = CN[C@H](C(=O)O)C(C)C; Sar = CNCC(=O)O

Experiments:
[1] = test system: Mia PaCa-2; test: Soft agar growth assay (Alamar Blue), Example 2, Mia PaCa-2; type: cell-based, human; details: Mia PaCa-2, soft agar, 8 days
Experimental: (§1) A stock solutions (1,000×) of menadione (VK3) were prepared in DMSO and a stock solution of calcium L-ascorbate dihydrate (VC) (1,000×) was prepared in water. All stock solutions were prediluted 1:62.5 first in medium and finally diluted to the final assay concentrations. Actinomycin D was used as a reference.
(§2) Suspension cell culture plates (96-well) were prepared. The soft agar bottom layer (100 μL, 0.6% final concentration in complete medium) was poured and left to solidify. The soft agar top layer (50 μL, 0.4% final concentration) containing the corresponding cells and cell number were then added on top, solidified, and incubated overnight at 37° C., 10% CO2. Next day, the test compounds, DMSO, or actinomycin D were added at predetermined final concentrations. […] Finally, the assay was developed using Alamar Blue and upon 0.5-5 hrs of incubation at 37° C. and fluorescence intensity was determined (excitation: 560 nm; emission: 590 nm). […]
(§3) Raw data were converted into percent soft agar growth relative to high controls (solvent 0.2% DMSO) and low controls (10^−5M staurosporine), which were set to 100% and 0%, respectively. IC50 values were calculated using standard parameters based on the signal of the solvent control as top constraint (100% soft agar growth) and the signal of the Staurosporine control as bottom constraint (0% soft agar growth).

[2] = test system: AsPC-1; test: Soft agar growth assay (Alamar Blue), Example 2, AsPC-1; type: cell-based, human; details: AsPC-1, soft agar, 10 days
Experimental: as §1, §2, §3

[3] = test system: human pancreatic cancerous cell line MIA PaCa-2; test: Soft agar growth assay (Alamar Blue), Example 1; type: cell-based; details: 240 h, MIA PaCa-2, soft agar, 10 days
Experimental: The effects of vitamins C and K3, alone or in combination, on pancreatic cancer were studied using human pancreatic cancerous cell line MIA PaCa-2. The pancreatic cancerous cells were cultured in DMEM containing 10% FCS and penicillin/streptomycin.
Vitamins C and K3 stock solutions in DMSO were prepared at a concentration of 2 M and 20 mM, respectively. Actinomycin D was used as a reference.
Prior to addition to the pancreatic cancerous cells, stock solutions of the test compounds (vitamins C and K3, and actinomycin D) were diluted in culture medium and 10 μL were added on top of 150 μL of solidified soft agar to diffuse into the soft agar in a 96-well plate. For each well in the 96-well plate, 100 μL of the soft agar bottom layer (0.6% final concentration in complete medium) was poured and left to solidify, and 50 μL of the soft agar top layer (0.4% final concentration) containing the pancreatic cancerous cells (about 5,000 cells/well) were then added on top, solidified. The 96-well plate was incubated overnight at 37° C., 10% CO2. The next day, the test compounds were added at the prescribed final concentrations into the inner wells of the plate. Subsequently, the assays were incubated in cell culture incubators for 10 days. […] Fluorescence intensity was then determined (excitation: 560 nm; emission: 590 nm). […]

In the case of `Cc1c2oc3c(C)ccc(C(=O)N[C@@H]4C(=O)N[C@H](C(C)C)C(=O)N5CCC[C@H]5C(=O)N(C)CC(=O)N(C)[C@@H](C(C)C)C(=O)O[C@@H]4C)c3nc-2c(C(=O)N[C@@H]2C(=O)N[C@H](C(C)C)C(=O)N3CCC[C@H]3C(=O)N(C)CC(=O)N(C)[C@@H](C(C)C)C(=O)O[C@@H]2C)c(N)c1=O` [Actinomycin D] (I: T[dV]P[Sar][NMeV] / II: T[dV]P[Sar][NMeV]; ester I:1-I:C, II:1-II:C; linker I:N-II:N via Actinocin(9to1)), the IC50 [1] is reported as 0.4 nM and the IC50 [2] is reported as 2.7 nM.
For `CC1=CC(=O)c2ccccc2C1=O` [Vitamin K3, 2-methyl-1,4-naphthoquinone], the viability at 0.6 µM ([3]; 0.6 μM Vitamin K3 alone) was 103.2 ± 0.9% and the viability at 6 µM ([3]; 6 μM Vitamin K3 alone) was 90.2 ± 12.5%.
